Reference: publication PMC6332220, “Synthesis, Characterization and Biological Evaluation of Some Quinoxaline Derivatives: A Promising and Potent New Class of Antitumor and Antimicrobial Agents” (Molecules, 2015)
Converted amounts (≈) assume the structure as drawn.

What was measured:
[1] = system: MCF-7 (breast adenocarcinoma); assay: In vitro cytotoxicity, SRB cell growth assay, MCF-7; conditions: Homo sapiens, MCF7, 48 h, read-out: IC50 (μg/mL) MCF-7
Procedure: (§1) The in vitro cytotoxic activity of the newly synthesized compounds against human breast cell line (MCF7), non-small cell lung cancer NCIH460, CNS cancer SF-268 and WI 38 (normal fibroblast cells) were evaluated using doxorubicin as the reference drug according to the method reported by Skehan et al..
(§2) The newly synthesized compounds were evaluated in vitro against three human cancer cell lines; which are MCF-7 (breast adenocarcinoma), NCI-H460 (non-small cell lung cancer) and SF-268 (CNS cancer), and WI 38 (normal fibroblast cells) were used in this study. MCF-7 was obtained from the European Collection of Cell Cultures (ECACC, Salisbury, UK) but NCI-H460, SF-268 and WI 38 were kindly provided by the National Cancer Institute (NCI, Cairo, Egypt). They grow as monolayer and routinely maintained RPMI-1640 medium supplemented with 5% heat inactivated fetal bovine serum (FBS), 2 mM glutamine and antibiotics (penicillin 100 U/mL, streptomycin 100 µg/mL), at 37 °C in a humidified atmosphere containing 5% CO2. Exponentially growing cells were obtained by plating 1.5 × 10^5 cells/mL for MCF-7 and SF-268, and 0.75 × 10^4 cells/mL for NCI-H460 followed by 24 h of incubation. The effect of the vehicle solvent (DMSO) on the growth of these cell lines was evaluated in all experiments by exposing untreated control cells to the maximum concentration (0.5%) of DMSO used in each assay.
(§3) The effect of compounds on the in vitro growth of human tumor cell lines were evaluated according to the procedure adopted by the National Cancer Institute ([…]) in the “In vitro Anticancer Drug Discovery Screen” that uses the protein-binding dye sulforhodamine B (SRB) to assess cell growth. In the assay protocol, all cells were incubated at 37 °C under humidified atmosphere containing 5% CO2. Briefly, exponentially cells growing in 96-well plates were then exposed for 48 h to five serial concentrations of each compound, starting from a maximum concentration of 150 μg/mL. Following this exposure period adherent cells were fixed, washed and stained. The bound stain was solubilized and the absorbance was measured at 492 nm in a plate reader (Bio-Tek Instruments Inc., Power wave XS, Winston, NC, USA). For each test compound and cell line, a dose response curve was obtained and the inhibitory concentration of 50% (IC50), corresponding to the concentration of the compounds that inhibited 50% of the net cell growth was calculated as described elsewhere. Doxorubicin was used as a positive control and tested in the same manner.

[2] = system: WI 38 (normal fibroblast cells); assay: In vitro cytotoxicity, SRB cell growth assay, normal cells WI 38; type: cell-based, human; conditions: 48 h exposure, non-cytotoxic = IC50 >100 μg/mL; for IC50: Homo sapiens, WI-38, 48 h
Procedure: as §1, §2, §3

Escherichia coli [3] = assay: Disk diffusion, Escherichia coli; type: cell-based; conditions: Gram negative, 8.0 mm disks, 10 μL
Procedure: (§4) The disk diffusion method was used for determination of the antimicrobial activity using ampicillin, gentamicin and amphotericin B as reference drugs. The results were recorded for each compounds as the average diameter as inhibition zones (IZ) of bacterial or fungal growth around the discs in mm as shown in Table 2.
(§5) Antimicrobial activities were carried out against highly pathogenic strains; three strains of Gram positive bacteria (Bacillus subtilis, Staphylococcus aureus and Streptococcus faecalis), four strains of Gram negative bacteria (Escherichia coli, Neisseria gonorrhoeae, Pseudomonas aeruginosa and Salmonella typhimurium) and three fungi strains (Aspergillus flavus, Aspergillus fumigatus and Candida albicans) isolated from primary agar plates. Antimicrobial activity of the tested samples was determined using a modified Kriby-Bauer disk diffusion method. Briefly, 100 µL of the test bacteria/fungi were grown in 10 mL of fresh media until they reached a count approximately 10^8 cells/mL for bacteria or 10^5 cells/mL for fungi. 100 µL of microbial suspension was spread onto agar plates corresponding to the broth in which they were maintained. The inoculated plates of bacterial strains were incubated at 35–37 °C for 24–48 h, while the inoculated plates of fungal strains such as A. flavus and A. fumigatus were incubated at 25 °C for 48 h and yeast as C. albicans was incubated at 30 °C for 24–48 h.
(§6) The agar disk diffusion (qualitative) method was used in this investigation for determination of the preliminary antibacterial and antifungal activities. The agar used was Mueller-Hinton agar plates that are rigorously tested for composition and pH. Further the depth of the agar in the plate is a factor to be considered in the disk diffusion method.
(§7) Reference drugs: ampicillin was used as a standard antibacterial drug for Gram positive bacteria, gentamicin as a standard antibacterial drug for Gram negative bacteria and amphotericin B as antifungal standard drug.
(§8) Bacterial and fungal strains were spread onto the surface of the agar plates using sterile cotton swabs. For evaluation of antibacterial activities, blank paper disks (Schleicher & Schuell, Alicante, Spain) with a diameter of 8.0 mm were saturated with 10 μL of tested concentration of the stock solutions. Disks were dried and then placed onto inoculated agar plates. The plates of bacterial strains were reincubated at 35–37 °C for 24–48 h, while the plates of fungal strains such as A. flavus and A. fumigatus were reincubated at 25 °C for 48 h and yeast as C. albicans was reincubated at 30 °C for 24–48 h as mentioned above. […] For an accurate analysis, tests were run in triplicate for each strain to avoid any error as described in Table 2.

Pseudomonas aeruginosa = assay: Disk diffusion, Pseudomonas aeruginosa; type: cell-based; conditions: Gram negative, 8.0 mm disks, 10 μL
Procedure: as §4, §5, §6, §7, §8

Aspergillus fumigatus = assay: Disk diffusion, Aspergillus fumigatus; type: cell-based; conditions: Fungi, 8.0 mm disks, 10 μL
Procedure: as §4, §5, §6, §7, §8
Disk diffusion method for filamentous fungi testing by using approved standard method (M02-A11) developed by the CLSI for evaluating the susceptibilities of filamentous fungi to antifungal agents. Disk diffusion method for yeasts developed by using approved standard method (M44-A2) by the CLSI [44]. Agar-based methods such as disk diffusion can be good alternatives because they are simpler and faster than broth-based methods.

Bacillus subtilis = assay: MIC by broth dilution, Bacillus subtilis; type: cell-based; conditions: Bacillus subtilis, Gram positive, 0.98-125 µg/mL, read-out: Minimum Inhibitory Concentration (MIC) (µg/mL) Bacillus subtilis
Procedure: (§9) In this study, MIC (quantitative method) was used for evaluation of the antimicrobial activity of tested compounds. Screening was evaluated in vitro using the Broth dilution method according to CLSI [45]. All the bacteria were incubated and activated at 30 °C for 24 h inoculation into nutrient broth and the fungi were incubated in malt extract broth for 48 h. The compounds were dissolved in DMSO and then diluted using […] Mueller-Hinton broth. […] In each case triplicate tests were performed and the average was taken as the final reading. The tubes were then inoculated with the test organisms, grown in their suitable broth at 37 °C for 24 h for tested microorganisms (1 × 10^8 CFU/mL for bacteria and 1 × 10^6 CFU/mL of fungi), each 5 mL received 0.1 mL of the above inoculum and incubated at 37 °C for 24 h.

Escherichia coli [4] = assay: MIC by broth dilution, Escherichia coli; type: cell-based; conditions: Escherichia coli, Gram negative, 0.98-125 µg/mL, read-out: Minimum Inhibitory Concentration (MIC) (µg/mL) Escherichia coli
Procedure: as §9

Compound	MIC (Bacillus subtilis)	MIC (Escherichia coli [4])	melting point	IC50 [1]	IC50 (μg/mL) WI 38 [2]	IC50 [2]	Inhibition Zone Diameter (IZ) (mm) Escherichia coli (Escherichia coli [3])	Inhibition Zone Diameter (IZ) (mm) Pseudomonas aeruginosa (Pseudomonas aeruginosa)	Inhibition Zone Diameter (IZ) (mm) Aspergillus fumigatus (Aspergillus fumigatus)
Cc1cc(C)n(-c2nc3cc(Br)ccc3nc2NN)n1 [Compound 14, 6-Bromo-3-(3,5-dimethyl-1H-pyrazol-1-yl)-2-hydrazinyl quinoxaline]	1.95 µg/mL (≈ 5.85 µM)	3.9 µg/mL (≈ 11.7 µM)	164 to 166 °C	30.3 ± 3.86 µg/mL (≈ 91 µM)	–	58.7 ± 8.65 µg/mL (≈ 176 µM)	12 mm	12 mm	R (R (IZ = 0 mm))
Brc1ccc2nc(N3CCCCC3)c3nnnn3c2c1 [Compound 5a, 8-Bromo-4-(piperidin-1-yl)tetrazolo[1,5-a]quinoxaline]	31.2 µg/mL (≈ 93.8 µM)	125 µg/mL (≈ 375 µM)	122 to 123 °C	0.01 ± 0.001 µg/mL (≈ 0.03 µM)	–	> 100 µg/mL	13 mm	11 mm	12 mm
Brc1ccc2nc(N3CCOCC3)c3nnnn3c2c1 [Compound 5b, 8-Bromo-4-(morpholin-4-yl)tetrazolo[1,5-a]quinoxaline]	1.95 µg/mL (≈ 5.82 µM)	1.95 µg/mL (≈ 5.82 µM)	144 to 146 °C	0.02 ± 0.002 µg/mL (≈ 0.0597 µM)	–	> 100 µg/mL	11 mm	10 mm	12 mm
NC1=NN(c2nc3ccc(Br)cc3nc2N2N=C(N)CC2=O)C(=O)C1 [Compound 16, 6-Bromo-2,3-bis(3-amino-1H-pyrazol-5(4H)-one)quinoxaline]	1.95 µg/mL (≈ 4.84 µM)	3.9 µg/mL (≈ 9.67 µM)	232 to 233 °C	12.8 ± 1.46 µg/mL (≈ 31.8 µM)	–	30 ± 2.36 µg/mL (≈ 74.5 µM)	10 mm	11 mm	R (R (IZ = 0 mm))
NNc1nc2cc(Br)ccc2nc1Cl [Compound 3, 6-Bromo-2-chloro-3-hydrazinylquinoxaline]	1.95 µg/mL (≈ 7.13 µM)	3.9 µg/mL (≈ 14.3 µM)	201 to 203 °C	36 ± 7.33 µg/mL (≈ 132 µM)	–	32.2 ± 6.54 µg/mL (≈ 118 µM)	13 mm	14 mm	R (R (IZ = 0 mm))

These reach a lower MIC (Bacillus subtilis). Values come first.

MIC (Bacillus subtilis)	MIC (Escherichia coli [4])	melting point	Compound	IC50 [1]	IC50 (μg/mL) WI 38 [2]	IC50 [2]	Inhibition Zone Diameter (IZ) (mm) Escherichia coli (Escherichia coli [3])	Inhibition Zone Diameter (IZ) (mm) Pseudomonas aeruginosa (Pseudomonas aeruginosa)	Inhibition Zone Diameter (IZ) (mm) Aspergillus fumigatus (Aspergillus fumigatus)
0.98 µg/mL (≈ 3.37 µM)	62.5 µg/mL (≈ 215 µM)	–	Brc1ccc2c(c1)n1nnnc1c1nnnn21 [Compound 11, 9-Bromoditetrazolo[1,5-a:5′,1′-c]quinoxaline]	1.18 ± 1.03 µg/mL (≈ 4.05 µM)	56.85 ± 4.05 µg/mL (≈ 195 µM)	> 100 µg/mL	15 mm	14 mm	R (R (IZ = 0 mm))
0.98 µg/mL (≈ 3.64 µM)	1.95 µg/mL (≈ 7.25 µM)	–	NNc1nc2ccc(Br)cc2nc1NN [Compound 9, 6-Bromo-2,3-dihydrazinylquinoxaline]	37.1 ± 7.34 µg/mL (≈ 138 µM)	–	30.6 ± 6.21 µg/mL (≈ 114 µM)	29 mm	31 mm	5 mm
0.98 µg/mL (≈ 3.44 µM)	3.9 µg/mL (≈ 13.7 µM)	199 to 201 °C	Clc1nc2ccc(Br)cc2n2nnnc12 [Compound 4, 8-Bromo-4-chlorotetrazolo[1,5-a]quinoxaline]	0.02 ± 0.006 µg/mL (≈ 0.0703 µM)	–	> 100 µg/mL	17 mm	21 mm	10 mm
